In patent US9125947B2, “Phenylethanoic acid, phenylpropanoic acid and phenylpropenoic acid conjugates and prodrugs of hydrocodone, method of making and use thereof” (KemPharm, Inc., priority 2009, dated 2015):

Tests used:
[1] = Intranasal PK in rats, Ibu-HC vs Hydrocodone BT (Example 6); type: in vivo
Excerpt: The intranasal profiles of Ibu-HC were compared to the unconjugated drug Hydrocodone•BT by administering to rats intranasally and measuring the plasma concentration of hydrocodone or hydromorphone over time.

[2] = Water solubility / ability to be dosed in solution (Example 4)
[3] = Oral PK in rats, Ibu-HC and Cinnamate-HC vs Hydrocodone BT (Example 5)
[4] = Intranasal PK in rats, Ibu-HC vs Adipate-HC (Example 3); details: equivalent to 2 mg/kg freebase hydrocodone
[5] = Chemical stability: hydrolysis in 5% NaHCO3; type: physicochemical; details: 5% NaHCO3, one hour; for initial amount of conjugate hydrolyzed, 5% NaHCO3 ambient: ambient temperature (~20° C.); for initial amount of conjugate hydrolyzed, 5% NaHCO3 100° C.: oil bath at 100° C.
[6] = Chemical stability: hydrolysis to hydrocodone in 1 N hydrochloric acid; details: 1 hour; for initial amount of conjugate hydrolyzed, 1N HCl ambient: ambient temperature (~20° C.); for initial amount of conjugate hydrolyzed, 1N HCl 100° C.: oil bath at 100° C.

Row | Compound | water solubility [2] | initial amount of conjugate hydrolyzed, 5% NaHCO3 ambient [5] [%] | initial amount of conjugate hydrolyzed, 5% NaHCO3 100° C. [5] [%] | initial amount of conjugate hydrolyzed, 1N HCl ambient [6] [%] | initial amount of conjugate hydrolyzed, 1N HCl 100° C. [6] [%] | other results
1 | COc1ccc2c3c1O[C@H]1C(=O)CC[C@H]4[C@@H](C2)N(C)CC[C@]314.O=C(O)C(O)C(O)C(=O)O [Hydrocodone•BT, hydrocodone bitartrate, reference compound] | – | – | – | – | – | hydrocodone AUC, higher than Ibu-HC ([1]; hydrocodone in plasma, relative to Ibu-HC): approximately 300%
2 | COc1ccc2c3c1OC1C(OC(=O)C(C)c4ccc(CC(C)C)cc4)=CCC4C(C2)N(C)CCC314 (stereo not shown) [Ibu-HC, ibuprofen-hydrocodone] | very low water solubility | 0 | 22 | – | – | hydrocodone plasma concentrations compared with Hydrocodone•BT [1]: significantly lower; plasma concentration of hydromorphone compared with Hydrocodone•BT [1]: very low; hydrocodone and hydromorphone plasma concentrations compared with unconjugated Hydrocodone•BT ([3]; equivalent to 2 mg/kg freebase hydrocodone): similar; AUC and Cmax values (hydrocodone and hydromorphone) compared with Hydrocodone•BT ([3]; same dose based on hydrocodone freebase (2 mg/kg)): within the range of bioequivalence; hydrocodone plasma concentrations compared with Adipate-HC [4]: significantly lower; plasma concentration of hydromorphone compared with Adipate-HC [4]: very low
3 | COc1ccc2c3c1OC1C(OC(=O)COCC(=O)O)=CC[C@H]4[C@@H](C2)N(C)CC[C@]314 (stereo partly shown) [Diglycolate-HC] | water-soluble | – | – | – | – | –
4 | COc1ccc2c3c1OC1C(OC(=O)CCCCC(=O)O)=CC[C@H]4[C@@H](C2)N(C)CC[C@]314 (stereo partly shown) [Adipate-HC, reference compound] | water-soluble | 3 | 100 | 13 | 100 | hydromorphone AUC, higher than Ibu-HC ([4]; hydromorphone in plasma, relative to Ibu-HC): approximately 940%; hydrocodone AUC, higher than Ibu-HC ([4]; released hydrocodone in plasma, relative to Ibu-HC): approximately 170%
5 | COc1ccc2cc(C(C)C(=O)OC3=CCC4C5Cc6ccc(OC)c7c6C4(CCN5C)C3O7)ccc2c1 (stereo not shown) [Naproxen-HC, naproxen-hydrocodone] | – | 0 | 8 | 0 | 33 | –
